The subject of the data set is LPS-induced pulmonary neutrophilia and emetic episodes in the conscious ferret. The experiment in a line: In Vivo Assay 4: Therapeutic Index of PDE4 inhibitors in the conscious ferret (LPS neutrophilia and emesis). On the procedure: PDE4 inhibitors are prepared for oral (p.o.) administration by dissolving in a fixed volume (1 ml) of acetone and then adding cremophor to 20% of the final volume. Acetone is evaporated by directing a flow of nitrogen gas onto the solution. Once the acetone is removed, the solution is made up to final volume with distilled water. LPS is dissolved in phosphate buffered saline.
Male ferrets (Mustela Pulorius Furo, weighing 1-2 kg) are transported and allowed to acclimatise for not less than 7 days. The diet comprises SDS diet C pelleted food given ad lib with Whiskers™ cat food given 3 times per week. The animals are supplied with pasteurised animal grade drinking water changed daily.
PDE4 inhibitors are administered orally (p.o.), using a dose volume of 1 ml/kg. Ferrets are fasted overnight but allowed free access to water. The animals are orally dosed with vehicle or PDE 4 inhibitor using a 15 cm dosing needle that is passed down the back of the throat into the oesophagus. After dosing, the animals are returned to holding cages fitted with perspex doors to allow observation, and given free access to water. The animals are constantly observed and any emetic episodes (retching and vomiting) or behavioural changes are recorded. The animals are allowed access to food 60-90 minutes after p.o. dosing.
Thirty minutes after oral dosing with compound or vehicle control, the ferrets are placed into sealed perspex containers and exposed to an aerosol of LPS (30 μg/ml) for 10 minutes. Aerosols of LPS are generated by a nebuliser (DeVilbiss, USA) and this is directed into the perspex exposure chamber. Following a 10-minute exposure period, the animals are returned to the holding cages and allowed free access to water, and at a later stage, food. General observation of the animals continues for a period of at least 2.5 hours post oral dosing. All emetic episodes and behavioural changes are recorded.
Six hours after LPS exposure the animals are killed by overdose of sodium pentobarbitone administered intraperitoneally. […] From this, the total number of neutrophils in the BAL sample is determined. […]

As to `O=C(Nc1c(Cl)cncc1Cl)c1ccc(OC(F)F)c(OCC2CC2)c1` [roflumilast], where the note is “D20 emesis / D50 neutrophilia, ferret p.o.”, the “Therapeutic index (TI), ferret Assay 4” value was found to be 1.02. For the same molecule, the D20 for emesis (p.o., ferret, dose giving 20% incidence of emesis) is on record as 0.5 mg/kg. Where the note is “p.o., ferret, dose giving 50% inhibition of LPS-induced pulmonary neutrophilia”, this molecule returned a D50 for neutrophilia of 0.49 mg/kg.

Source of the values: US20060089375A1, “Pyrazolo[3,4-b] pyridine compounds, and their use as phosphodiesterase inhibitors” (priority 2002, published 2006).
